From ChEMBL document CHEMBL4613212, “Insights of synthetic analogues of anti-leprosy agents” (Bioorg Med Chem, 2019)
In brackets after ≈: the same amount, converted by molar mass.

system: Mycobacterium tuberculosis; assay: Antimycobacterial activity against Mycobacterium bovis BCG Pasteur incubated for 10 days by spectrophotometric based assay; assay type: functional; details: variant bovis BCG, 240 h

Question: With `CCCCCCCCC(CCC1CCCN1)C(=O)O` (stereo not given) as the molecule, how does the MIC99 read?
Answer: Its MIC99 is 5100 µM (≈ 1370 µg/mL).

Question: For `O=C1c2ccccc2C(=O)N1c1cnc(S(=O)(=O)Nc2ccccn2)cn1`, which MIC99 is on record?
Answer: Its MIC99 is 900 µM (≈ 343 µg/mL).

Question: Which MIC99 does the source give for `O=C(O)C(CCCCCCCF)CCC1CCCC1` (stereo not given) here?
Answer: The MIC99 was 1600 µM (≈ 436 µg/mL).

Question: With `CCCCCCCCC(CCC1=CCC=C1)C(=O)O` (stereo not given) as the molecule, how does the MIC99 read?
Answer: Its MIC99 is 6000 µM (≈ 1590 µg/mL).

Question: For `CCCCCCOCC(CCC1CCCC1)C(=O)O` (stereo not given), which MIC99 is on record?
Answer: The MIC99 was 1100 µM (≈ 297 µg/mL).

Question: Which MIC99 does the source give for `O=C1c2ccccc2C(=O)N1c1ccc(S(=O)(=O)Nc2cnccn2)cc1` here?
Answer: Its MIC99 is 1000 µM (≈ 380 µg/mL).

Question: For `CCCCCCCCC(CCC1CCCC1)C(=O)OC` (stereo not given), which MIC99 is on record?
Answer: The MIC99 was 1500 µM (≈ 424 µg/mL).

Question: `CCCCCCCCC(CCC1CCCS1)C(=O)O` (stereo not given) was tested. Which MIC99 did it give?
Answer: The MIC99 was 5400 µM (≈ 1550 µg/mL).

Question: With `O=C1c2ccccc2C(=O)N1c1ccc(S(=O)(=O)Nc2ccncn2)cc1` as the molecule, how does the MIC99 read?
Answer: The MIC99 was 1900 µM (≈ 723 µg/mL).

Question: Which MIC99 does the source give for `CCCCCCCCC(CCC1CCCC1)C(=O)NCC` (stereo not given) here?
Answer: Its MIC99 is 4400 µM (≈ 1300 µg/mL).

Question: With `CCCCCCCCC(CCC1CCCC1)C(N)=O` (stereo not given) as the molecule, how does the MIC99 read?
Answer: The MIC99 was 5400 µM (≈ 1440 µg/mL).

Question: `O=C1c2ccccc2C(=O)N1c1ccc(S(=O)(=O)Nc2ccccn2)cn1` was tested. Which MIC99 did it give?
Answer: The MIC99 was 1900 µM (≈ 723 µg/mL).

Question: Which MIC99 does the source give for `CCCOCOCCC(CCC1CCCC1)C(=O)O` (stereo not given) here?
Answer: Its MIC99 is 500 µM (≈ 136 µg/mL).

Question: `CCCCCCCCC(COC1CCCC1)C(=O)O` (stereo not given) was tested. Which MIC99 did it give?
Answer: The MIC99 was 2200 µM (≈ 595 µg/mL).

Question: For `CCCCCCCCC(CCC1CCCO1)C(=O)O` (stereo not given), which MIC99 is on record?
Answer: Its MIC99 is 2500 µM (≈ 676 µg/mL).
